Assay results: patent publication US9593113B2, “Imide and acylurea derivatives as modulators of the glucocorticoid receptor” (BRISTOL-MYERS SQUIBB COMPANY, priority 2013, dated 2017)
Like-named read-outs stand apart in the source and are kept apart here.

What was measured:
[1] = molecular target: human full-length glucocorticoid receptor (Homo sapiens (Human), UniProt P04150); test: Glucocorticoid Receptor Binding Assay (II), fluorescence polarization competitor kit; details: read-out: GR (Ki, nM) (measured in GR binding Assay II)
Procedure: In order to measure the binding of compounds on the glucocorticoid receptor a commercially available kit was used (Glucocorticoid receptor competitor assay kit, PanVera Co., Madison, Wis., P2816). Briefly, a cell lysate containing recombinantly expressed human full-length glucocorticoid receptor was mixed with a fluorescently labeled glucocorticoid (1 nM Fluormone GS1) in the presence or absence of test compound. After one hour at room temperature, the fluorescence polarization (FP) of the samples were measured.

[2] = test system: AP-1 induced transcriptional activity; test: Cellular transrepressional assay (AP-1 luciferase reporter, PMA-activated A549 cell); format: cell-based; details: for EC50: read-out: AP-1 (EC50, nM) (measured in cellular transrepression assay)
Procedure: To measure the ability of test molecules to inhibit AP-1 induced transcriptional activity we utilized an A549 cell which was stably transfected with a plasmid containing 7×AP-1 DNA binding sites (pAP-1-Luc plasmid, Stratagene Co., La Jolla, Calif.) followed by the gene for luciferase. Cells were activated with 10 ng/ml of phorbol myristic acid (PMA) plus or minus test molecules for 7 hours. After 7 hours a luciferase reagent was added to measure luciferase enzymatic activity in the cell. After a 10 minute incubation of luciferase reagent with cells, luminescence was measured in a TOPCOUNT® luminescence counter. Repression of AP-1 activity was calculated as the percentage decrease in the signal induced by PMA alone. Test molecules were analyzed in the concentration range from 0.1 nM to 40 μM. EC50s were determined by using standard curve fitting methods such as Excel fit (Microsoft Co.). An EC50 is the test molecule concentration at which there is a 50% repression of the maximal inhibition of transcription, i.e., a 50% reduction of AP-1 activity.

[3] = A549 cell, 10 ng/ml PMA, 7 hours
[4] = Homo sapiens, A549 cell, 10 ng/ml PMA, 7 hours

human full-length glucocorticoid receptor, sequence (P04150 whole entry): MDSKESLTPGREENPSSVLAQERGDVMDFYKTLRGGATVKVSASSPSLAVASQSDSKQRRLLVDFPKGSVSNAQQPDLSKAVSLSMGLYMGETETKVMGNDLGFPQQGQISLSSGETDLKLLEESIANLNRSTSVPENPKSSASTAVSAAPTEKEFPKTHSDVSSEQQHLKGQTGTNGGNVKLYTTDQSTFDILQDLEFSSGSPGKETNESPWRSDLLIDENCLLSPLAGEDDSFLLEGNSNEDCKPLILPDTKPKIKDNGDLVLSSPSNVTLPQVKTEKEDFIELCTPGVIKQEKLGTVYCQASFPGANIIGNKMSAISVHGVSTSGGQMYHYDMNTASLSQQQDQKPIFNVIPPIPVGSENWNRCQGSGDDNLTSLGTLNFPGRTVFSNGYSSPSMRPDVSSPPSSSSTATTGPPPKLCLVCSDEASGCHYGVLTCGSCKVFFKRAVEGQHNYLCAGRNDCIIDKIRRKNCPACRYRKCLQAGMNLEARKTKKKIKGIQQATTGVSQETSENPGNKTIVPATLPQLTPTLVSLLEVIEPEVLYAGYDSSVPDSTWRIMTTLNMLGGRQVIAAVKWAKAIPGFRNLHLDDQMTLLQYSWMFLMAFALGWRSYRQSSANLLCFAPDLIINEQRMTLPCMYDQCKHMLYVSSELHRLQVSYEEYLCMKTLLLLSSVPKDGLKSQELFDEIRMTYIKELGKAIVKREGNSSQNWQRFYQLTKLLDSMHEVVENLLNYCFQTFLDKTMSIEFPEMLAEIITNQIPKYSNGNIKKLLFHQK

Row | Compound | Ki [1] | EC50 [2, 3] | EC50 [2, 4] | AP-1 Max % inhibition (measured in cellular transrepression assay) [2, 3] | AP-1 Max % inhibition (measured in cellular transrepression assay) [2] | EC50 [2]
1 | CC(C)(C(=O)NC(N)=O)[C@H]1c2ccccc2Oc2nc(-c3ccc(C(=O)N4CCCC4)c(F)c3)ccc21 [Example 51] | 1.34 nM | 13.2 nM | – | 65.20% | – | –
2 | CNC(=O)NC(=O)C(C)(C)[C@@H]1c2ccc(-c3ccc(C(=O)N4CCCC4)cc3)nc2Oc2c(F)cccc21 [Example 11] | 4.44 nM | 29.6 nM | – | 46.34% | – | –
3 | CNC(=O)NC(=O)C(C)(C)[C@@H]1c2ccc(-c3cnc(N4CCN(C)CC4)nc3)nc2Oc2c(F)cccc21 [Example 18] | 239 nM | 5000 nM | – | 21.96% | – | –
4 | CC(C)(C(=O)NC(N)=O)[C@@H]1c2ccc(-c3ccc(C(=O)N4CCCC4)nc3)nc2Oc2c(F)cccc21 [Example 46] | 1.97 nM | 16.5 nM | – | 65.90% | – | –
5 | CC(C)(C(=O)NC(N)=O)[C@@H]1c2ccc(-c3ccc(N4CCCCC4)nc3)nc2Oc2c(F)cccc21 [Example 64] | 1.7 nM | – | – | – | 44.43% | 72.5 nM
6 | CC(C)(C(=O)NC(N)=O)C1c2ccccc2Oc2ccccc21 [Example 75] | 32 nM | – | 5000 nM | 10.32% | – | –
7 | CC(=O)NC(=O)C(C)(C)[C@@H]1c2ccc(-c3ccc(C(=O)N4CCCC4)cc3)nc2Oc2c(F)cccc21 [Example 8] | 3.59 nM | 5.97 nM | – | 64.35% | – | –
8 | CC(C)(C(=O)NC(N)=O)[C@H]1c2ccccc2Oc2nc(-c3cc[n+]([O-])cc3)ccc21 [Example 76] | 119 nM | 327 nM | – | 23.09% | – | –
9 | CC(=O)Nc1ccc(-c2ccc3c(n2)Oc2ccccc2[C@@H]3C(C)(C)C(=O)NC(N)=O)cn1 [Example 66] | 2.66 nM | 39.7 nM | – | 36.83% | – | –

Continued by falling Ki [1], values first:

Row | Ki [1] | EC50 [2, 3] | EC50 [2, 4] | Compound | AP-1 Max % inhibition (measured in cellular transrepression assay) [2, 3] | AP-1 Max % inhibition (measured in cellular transrepression assay) [2] | EC50 [2]
10 | 24.9 nM | 72.6 nM | – | CN(C)c1ccc(-c2ccc3c(n2)Oc2ccccc2[C@@H]3C(C)(C)C(=O)NC(N)=O)cn1 [Example 58] | 45.16% | – | –
11 | 13.6 nM | 483 nM | – | CNC(=O)NC(=O)C(C)(C)[C@@H]1c2ccc(-c3ccc(S(C)(=O)=O)cc3)nc2Oc2c(F)cccc21 [Example 13] | 31.60% | – | –
12 | 5.26 nM | 347 nM | – | CNC(=O)NC(=O)C(C)(C)[C@@H]1c2ccc(-c3ccc(S(=O)(=O)C(C)C)cc3)nc2Oc2c(F)cccc21 [Example 25] | 25.41% | – | –
13 | 4.71 nM | – | 36 nM | CC(C)(C(=O)NC(N)=O)[C@H]1c2ccccc2Oc2nc(-c3ccncc3)ccc21 [Example 72] | 37.36% | – | –
14 | 4.23 nM | 128 nM | – | CC(C)Oc1ccc(-c2ccc3c(n2)Oc2ccccc2[C@@H]3C(C)(C)C(=O)NC(N)=O)cn1 [Example 57] | 73.98% | – | –
15 | 3.33 nM | – | 646 nM | COc1ccc(CNC(=O)NC(=O)C(C)(C)[C@@H]2c3ccc(-c4ccc(C(C)(C)O)cc4)nc3Oc3c(F)cccc32)cc1 [Example 29] | 51.82% | – | –
16 | 1.72 nM | – | 20.1 nM | CC(C)(C(=O)NC(N)=O)[C@@H]1c2ccc(-c3ccncc3)nc2Oc2c(F)cccc21 [Example 73] | 55.78% | – | –
17 | 1.6 nM | 35.1 nM | – | CNC(=O)NC(=O)C(C)(C)[C@@H]1c2ccc(-c3ccc(OC(C)C)cc3)nc2Oc2c(F)cccc21 [Example 16] | 49.58% | – | –
18 | 1.2 nM | – | 0.8 nM | CC(C)(C(=O)NC(N)=O)[C@@H]1c2ccc(-c3ccc(C(=O)N4CC[C@@H](F)C4)cc3)nc2Oc2c(F)cccc21 [Example 85] | 76.00% | – | –
19 | 0.8 nM | 16.2 nM | – | CC(C)Oc1ccc(-c2ccc3c(n2)Oc2ccccc2[C@@H]3C(C)(C)C(=O)NC(N)=O)cc1 [Example 36] | 59.83% | – | –
20 | 0.59 nM | 5.82 nM | – | CC(C)(C(=O)NC(N)=O)[C@@H]1c2ccc(-c3ccc(S(C)(=O)=O)cc3)nc2Oc2c(F)cccc21 [Example 33] | 64.54% | – | –
